Data taken from US6905852B1, “Herbicide-resistant protoporphyrinogen oxidase isolated from Nicotiana tabacum” (Nihon Nohyaku Co., Ltd., priority 1997, dated 2005).
Read-outs that look alike come from different tables or passages of the source.

Tests used:
ETR-056 = assay: MIC on MS agar medium, cross-resistance to herbicides; assay type: cell-based, Nicotiana tabacum
Source text: (§1) Further, cross-resistance of a resistant strain tolerant to herbicides with various modes of action was examined. Sensitivity to fomesafen (trade mark: FLEX) and oxadiazon (trade mark: RONSTAR), which are photobleaching herbicide and accumulate protoporphyrin IX; pyrazoxyfen (trademark: PAICER) which is a chlorophyll synthesis inhibitor and causes bleaching; DPX-84 and bialaphos (trademark: BASTA) and glyphosate (trademark: ROUNDUP) which are an inhibitor of the amino acid synthesis; butachlor (trademark: MACHETE) which is a protein synthesis inhibitor; propanil (trademark: STAM) which is an inhibitor of light synthesis photochemical system II and paraquat (trademark: PREEGLOX) which is an inhibitor of photosystem I and produces an active oxygen was compared. Into MS agar medium containing each herbicides, each resistant strain was transplanted and minimum inhibition concentration (MIC) was measured. […] From the above results, ETR-056 was thought to have resistance to an active oxygen caused by overproduction of superoxide dismutase, and ETR-253 was thought to have resistance to many herbicides caused by decreasing of a membrane permeability, and ETR-245 was thought to have resistance caused by mutation of a target enzyme or overproduction of a target enzyme.
(§2) MIC of compound A to the sensitive cell lines, ETR-056, ETR-245 and ETR-253 were measured.

ETR-245 = assay: as above; assay type: cell-based, Nicotiana tabacum
Source text: as §1, §2

Sensitive strain = assay: as above; assay type: cell-based, Nicotiana tabacum; details: Sensitive strain
Source text: as §1, §2

ETR-253 = assay: as above; assay type: cell-based, Nicotiana tabacum
Source text: as §1, §2

[1] = tested on: E. coli SASX38 strain having pCR-RC with tobacco resistant type protoporphyrinogen oxidase gene; assay: Growth inhibition of E. coli SASX38 (liquid culture with shaking); assay type: cell-based, Nicotiana tabacum; details: for R/S b) Tobacco: Resistant type/Wild type; for Superiority c): b/a: tobacco R/S over Arabidopsis thaliana R/S
Method: (§3) The E. coli SASX38 strain containing either of the above-described two kinds of plasmid was cultured with shaking in LB liquid medium containing 50 μg/ml of ampicillin at 28° C. for overnight.

[2] = biological target: T1, E. coli SASX38 strain having pCR-HC with tobacco wild type protoporphyrinogen oxidase cDNA (Nicotiana tabacum, UniProt O24163); assay: as above; assay type: cell-based
T1 construct: expressed in transfected cells; host or cells: E. coli SASX38 (hemG-deficient) carrying pCR-HC
T1 sequence (O24163 51-548): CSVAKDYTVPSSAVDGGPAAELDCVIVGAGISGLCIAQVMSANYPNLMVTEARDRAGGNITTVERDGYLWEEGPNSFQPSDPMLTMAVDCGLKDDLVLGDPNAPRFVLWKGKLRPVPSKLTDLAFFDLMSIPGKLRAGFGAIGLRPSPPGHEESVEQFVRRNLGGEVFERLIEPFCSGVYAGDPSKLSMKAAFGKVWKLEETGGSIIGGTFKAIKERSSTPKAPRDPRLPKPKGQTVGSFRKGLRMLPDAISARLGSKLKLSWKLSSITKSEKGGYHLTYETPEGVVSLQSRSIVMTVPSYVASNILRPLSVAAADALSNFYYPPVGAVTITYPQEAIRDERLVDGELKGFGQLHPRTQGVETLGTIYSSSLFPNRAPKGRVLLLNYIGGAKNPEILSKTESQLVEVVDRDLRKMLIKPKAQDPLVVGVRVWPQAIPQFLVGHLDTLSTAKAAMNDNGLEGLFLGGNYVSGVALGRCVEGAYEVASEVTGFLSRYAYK
Method: as §3

[3] = biological target: T2, E. coli SASX38 strain having pBAtPX-RC with Arabidopsis thaliana resistant type protoporphyrinogen oxidase cDNA (Arabidopsis thaliana, UniProt P55826, A220V); assay: as above; assay type: cell-based; details: for R/S a) Arabidopsis thaliana: Resistant type/Wild type
T2 construct: expressed in transfected cells; host or cells: E. coli SASX38 (hemG-deficient) carrying pBAtPX-RC (pBluescript SK(-))
Method: as §3

[4] = biological target: T3, E. coli SASX38 strain having pCR-RC with tobacco resistant type protoporphyrinogen oxidase gene (Nicotiana tabacum, UniProt O24163, A174P/A191P/A231V/T382S); assay: as above; assay type: cell-based
T3 construct: expressed in transfected cells; host or cells: E. coli SASX38 (hemG-deficient) carrying pCR-RC
Method: as §3

[5] = biological target: T4, E. coli SASX38 strain having pBAtPX-C with Arabidopsis thaliana wild type protoporphyrinogen oxidase gene (Arabidopsis thaliana, UniProt P55826); assay: as above; assay type: cell-based
T4 construct: expressed in transfected cells; host or cells: E. coli SASX38 (hemG-deficient) carrying pBAtPX-C (pBluescript SK(-))
T4 sequence (P55826 35-537): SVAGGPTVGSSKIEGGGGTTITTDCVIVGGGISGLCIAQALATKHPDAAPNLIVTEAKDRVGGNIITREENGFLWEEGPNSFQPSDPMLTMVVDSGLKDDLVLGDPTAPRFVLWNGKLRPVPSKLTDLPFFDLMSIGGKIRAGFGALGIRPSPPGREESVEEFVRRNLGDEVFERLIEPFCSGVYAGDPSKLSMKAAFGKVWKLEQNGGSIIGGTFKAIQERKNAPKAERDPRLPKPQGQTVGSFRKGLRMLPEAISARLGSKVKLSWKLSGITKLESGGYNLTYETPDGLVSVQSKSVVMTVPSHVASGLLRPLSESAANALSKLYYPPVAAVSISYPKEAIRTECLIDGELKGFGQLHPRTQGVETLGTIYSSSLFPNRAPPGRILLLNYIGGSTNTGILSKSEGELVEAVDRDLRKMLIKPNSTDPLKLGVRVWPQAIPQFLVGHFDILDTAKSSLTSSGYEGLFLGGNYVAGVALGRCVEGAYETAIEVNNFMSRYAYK
Method: as §3

T3 sequence (O24163 whole entry A174P/A191P/A231V/T382S): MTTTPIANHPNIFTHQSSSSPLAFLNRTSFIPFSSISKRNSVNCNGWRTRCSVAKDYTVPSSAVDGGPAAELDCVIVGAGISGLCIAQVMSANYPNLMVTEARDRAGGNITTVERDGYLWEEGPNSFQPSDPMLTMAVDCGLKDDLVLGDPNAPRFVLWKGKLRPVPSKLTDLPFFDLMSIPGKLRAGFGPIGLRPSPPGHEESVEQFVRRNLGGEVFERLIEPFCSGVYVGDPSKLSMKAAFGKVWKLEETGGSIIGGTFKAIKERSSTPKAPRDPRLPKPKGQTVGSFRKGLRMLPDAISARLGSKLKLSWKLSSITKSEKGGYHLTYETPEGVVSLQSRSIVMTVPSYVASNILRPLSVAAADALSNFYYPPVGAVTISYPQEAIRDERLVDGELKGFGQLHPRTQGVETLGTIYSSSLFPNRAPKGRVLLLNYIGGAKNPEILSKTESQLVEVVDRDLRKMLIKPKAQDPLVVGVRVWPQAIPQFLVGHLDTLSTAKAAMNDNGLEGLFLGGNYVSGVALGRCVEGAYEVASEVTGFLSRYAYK
T2 sequence (P55826 35-537 A220V): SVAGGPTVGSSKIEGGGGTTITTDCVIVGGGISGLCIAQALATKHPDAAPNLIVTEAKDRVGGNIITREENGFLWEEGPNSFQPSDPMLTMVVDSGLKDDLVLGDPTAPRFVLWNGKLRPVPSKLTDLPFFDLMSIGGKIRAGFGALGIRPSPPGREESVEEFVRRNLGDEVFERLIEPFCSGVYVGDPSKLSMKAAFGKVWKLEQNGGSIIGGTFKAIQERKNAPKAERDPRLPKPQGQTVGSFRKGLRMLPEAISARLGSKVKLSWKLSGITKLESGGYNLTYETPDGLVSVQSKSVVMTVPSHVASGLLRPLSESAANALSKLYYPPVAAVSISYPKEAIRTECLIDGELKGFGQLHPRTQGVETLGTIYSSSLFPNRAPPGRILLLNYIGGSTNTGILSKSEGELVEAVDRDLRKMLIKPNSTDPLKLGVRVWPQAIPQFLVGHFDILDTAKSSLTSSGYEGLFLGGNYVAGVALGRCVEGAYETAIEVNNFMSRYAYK

Row | SMILES | MIC (ppm) (ETR-056) | MIC (ppm) (ETR-245) | MIC (ppm) (Sensitive strain) | MIC (ppm) (ETR-253) | R/S b) Tobacco [1] | Superiority c) [1] | IC50 [2] [nM] | IC50 [3] [µM] | R/S a) Arabidopsis thaliana [3] | IC50 [4] [µM] | IC50 [5] [nM] | IC50 ([2]; E. coli liquid culture method with shaking, read-out: I50 (nM) Tobacco Wild) [nM] | IC50 ([5]; E. coli liquid culture method with shaking, read-out: I50 (nM) Arabidopsis thaliana Wild) [nM]
1 | CS(=O)(=O)NC(=O)c1cc(Oc2ccc(C(F)(F)F)cc2Cl)ccc1[N+](=O)[O-] [fomesafen] | 4 | 4 | 0.4 | 4 | – | – | – | – | – | – | – | – | –
2 | C#CCOc1cc(-c2nn(C)c(OC(F)F)c2Cl)c(F)cc1Cl [Comp.D, 4-chloro-3-[4-chloro-2-fluoro-5-(2-propynyl)oxyphenyl]-5-difluoromethoxy-1-methyl-1H-pyrazole] | – | – | – | – | 25,000 | 12.5 | 0.027 | 0.28 | 2,000 | 0.67 | 0.14 | – | –
3 | CC(C)OC(=O)c1cc(-c2nn(C)c(C(F)(F)F)c2Br)c(F)cc1Cl [Comp.F, 1-methylethyl 5-[4-bromo-1-methyl-5-(trifluoromethyl)-1H-pyrazol-3-yl]-2-chloro-4-fluorobenzoate] | – | – | – | – | 4,700 | 16.8 | – | 6.4 | 280 | 15 | – | 3.2 | 23
4 | CCOC(=O)C(C)Oc1cc(-c2nn(C)c(OC(F)F)c2Cl)c(F)cc1Cl (stereo not drawn) [Comp.E, ethyl 2-[2-chloro-5-(4-chloro-5-difluoromethoxy-1-methyl-1H-pyrazol-3-yl)-4-fluorophenoxy]propionate] | – | – | – | – | 12,000 | 12.6 | 0.52 | 4 | 950 | 6.3 | 4.2 | – | –
5 | CCC(=O)Nc1ccc(Cl)c(Cl)c1 [propanil] | 100 | 100 | 100 | 100 | – | – | – | – | – | – | – | – | –
6 | CC(C)Oc1cc(-n2nc(C(C)(C)C)oc2=O)c(Cl)cc1Cl [oxadiazon] | 1000 | 1000 | 1 | 1000 | – | – | – | – | – | – | – | – | –
7 | COC(=O)c1ccccc1CS(=O)(=O)NC(=O)Nc1nc(OC)cc(OC)n1 [DPX-84] | 0.01 | 0.01 | 0.01 | 0.1 | – | – | – | – | – | – | – | – | –
8 | COc1cc(-c2nn(C)c(OC(F)F)c2Cl)c(F)cc1Cl [Comp.C, 4-chloro-3-(4-chloro-2-fluoro-5-methoxyphenyl)-5-difluoromethoxy-1-methyl-1H-pyrazole] | – | – | – | – | 8,800 | 14.7 | 0.25 | 1.8 | 600 | 2.2 | 3 | – | –
9 | CCOC(=O)C(C)Nc1cc(-c2nn(C)c(OC(F)F)c2Cl)c(Cl)cc1Cl (stereo not drawn) [Comp.B, ethyl 2-[5-(4-chloro-5-difluoromethoxy-1-methyl-1H-pyrazol-3-yl)-2,4-dichloro-phenylamino]propionate] | – | – | – | – | 9,100 | >10.6 | 2.2 | 18 | 860 | > 20 | 21 | – | –
10 | C[n+]1ccc(-c2cc[n+](C)cc2)cc1 [paraquat] | 100 | 10 | 10 | 10 | – | – | – | – | – | – | – | – | –
11 | C[C@H](NC(=O)[C@H](C)NC(=O)[C@@H](N)CCP(C)(=O)O)C(=O)O [bialaphos] | 1 | 1 | 10 | 10 | – | – | – | – | – | – | – | – | –
12 | CCCCOCN(C(=O)CCl)c1c(CC)cccc1CC [butachlor] | 100 | 100 | 100 | 100 | – | – | – | – | – | – | – | – | –
13 | Cn1nc(-c2ccc(Cl)cc2F)c(Cl)c1OC(F)F [Comp.G, 4-chloro-3-(4-chloro-2-fluorophenyl)-5-difluorom ethoxy-1-methyl-1H-pyrazole] | – | – | – | – | 5,500 | 12.0 | 3.1 | 8.7 | 460 | 17 | 19 | – | –
14 | Cc1nn(C)c(OCC(=O)c2ccccc2)c1C(=O)c1ccc(Cl)cc1Cl [pyrazoxyfen] | 100 | 100 | 100 | 200 | – | – | – | – | – | – | – | – | –
15 | O=C(O)CNCP(=O)(O)O [glyphosate] | 230 | 230 | 230 | 1000 | – | – | – | – | – | – | – | – | –
